Where a SMILES comes first, the peptide text is derived from it. [ ]: non-standard residue; d: D form. Sta = CC(C)C[C@H](N)[C@@H](O)CC(=O)O
Legend:
[1] = system: PSAPP mice; conditions: 250 mg/kg/day orally, 5 weeks; cited from earlier work
[2] = molecular target: T1, purified recombinant human BACE1 (Homo sapiens, UniProt P56817); assay: In vitro fluorometric BACE1 activity assay; type: biochemical; conditions: increasing amounts of compound, 2 hours
T1 construct: purchased R&D systems
Description: A fluorometric β-secretase activity kit was used for detecting BACE1 activity in vitro. Reaction was done according to the manufacturer's instructions with slight modifications. Briefly, 1 μg of purified recombinant human BACE1 (R&D systems) was resuspended in 10 μl of 1× cell extraction buffer (R&D systems) and incubated with EDANS/DABCYL-[…] substrate peptide in the absence or presence of indicated account of CP-113,818 for 2 hours. Released EDANS fluorescence was measured by a fluorescent plate reader (Analyst AD, LJL Biosystems). As a negative control, a specific β-secretase inhibitor, GL-189 (Calbiochem) was added to one of the samples with the indicated concentration.

[3] = system: γ-secretase; assay: In vitro generation of APP intracellular domain (AICD), γ-secretase activity assay on CHO cell membrane fractions; type: biochemical, Chinese hamster; conditions: CHO cell (overexpressing APP) membrane fractions, increasing amounts of compound
Description: Membrane preparation and in vitro generation of AICD were performed as described (Gu et al., 2001; Kim et al., 2002). P2 membrane fractions were prepared from CHO cells overexpressing wild type APP and resuspended in Buffer H (20 mM HEPES, 150 mM NaCl, 10% glycerol, 5 mM EDTA, pH 7.4) with protease inhibitors. In vitro cleavage experiments were performed by incubating the membrane fractions at 0° C. or 37° C. for 1 hour with the indicated amounts of CP-113,818. As a negative control, a specific γ-secretase inhibitor, L-685,458, was added to one of the samples.

[4] = system: CHO cells; conditions: 4 μM; cited from earlier work
[5] = system: Tg2576 mice; conditions: 12 month-old female Tg2576 mice, 3 weeks; cited from earlier work

T1 sequence (P56817 46-501): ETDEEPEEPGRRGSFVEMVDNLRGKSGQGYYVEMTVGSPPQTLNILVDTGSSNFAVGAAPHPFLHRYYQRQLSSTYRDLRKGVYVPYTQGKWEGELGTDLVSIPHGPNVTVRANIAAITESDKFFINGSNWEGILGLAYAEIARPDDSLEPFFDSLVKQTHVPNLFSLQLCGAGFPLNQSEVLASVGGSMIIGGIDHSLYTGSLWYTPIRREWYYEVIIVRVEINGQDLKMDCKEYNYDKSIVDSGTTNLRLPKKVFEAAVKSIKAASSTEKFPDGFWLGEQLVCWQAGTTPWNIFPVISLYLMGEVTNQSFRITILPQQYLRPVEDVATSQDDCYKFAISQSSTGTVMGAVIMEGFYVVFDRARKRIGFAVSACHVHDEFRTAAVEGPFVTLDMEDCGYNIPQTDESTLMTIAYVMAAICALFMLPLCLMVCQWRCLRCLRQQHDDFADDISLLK

SMILES: O=C(O)c1ccc(CCN2CCN(C/C=C/c3ccc(Cl)cc3)CC2)cc1 [BM15.766]
- reduction of amyloid load [1]: 53%
- reduction of formic acid-extracted Aβ40 [1]: 58%
- reduction of formic acid-extracted Aβ42 [1]: 48%

SMILES: CC(C)C[C@H](NC(=O)[C@H](CC(N)=O)NC(=O)[C@@H](NC(=O)[C@@H](N)CCC(=O)O)C(C)C)[C@@H](O)CC(=O)N[C@H](C(=O)N[C@@H](C)C(=O)N[C@@H](CCC(=O)O)C(=O)N[C@@H](Cc1ccccc1)C(N)=O)C(C)C [GL-189] (H-EVN[Sta]VAEF-NH2)
- effect on BACE1 activity in vitro [2]: significantly reduces BACE1 activity

SMILES: CC(C)C[C@H](NC(=O)[C@H](Cc1ccccc1)C[C@@H](O)[C@H](Cc1ccccc1)NC(=O)OC(C)(C)C)C(=O)N[C@@H](Cc1ccccc1)C(N)=O [L-685,458]
- effect on γ-secretase activity (AICD generation) in vitro [3]: inhibits APP intracellular domain (AICD) generation

SMILES: CC(C)c1cc(C(C)C)c(CC(=O)NS(=O)(=O)Oc2c(C(C)C)cccc2C(C)C)c(C(C)C)c1 [avasimibe]
- inhibition of Aβ generation [4]: approximately 60%

SMILES: CC[C@H](C)C(=O)O[C@H]1C[C@@H](C)C=C2C=C[C@H](C)[C@H](CC[C@@H]3C[C@@H](O)CC(=O)O3)[C@H]21 [lovastatin]
- Aβ pathology in female animals [5]: increasing Aβ pathology
